The values below are quoted from earlier work in patent publication US8858953B2, “Herbal composition for treating cancer” (priority 2011, dated 2014).

The test system of this series is Epidermal Growth Factor Receptor (EGFR) mutation lung cancer. To be noted: lung cancer patients with EGFR mutation.

`C#Cc1cccc(Nc2ncnc3cc(OCCOC)c(OCCOC)cc23)c1` [Erlotinib]: the progression free survival entry is “up to 9 months”.
